Laboratory results taken from patent US8536164B2, “Fused pyridine compounds as casein kinase inhibitors” (Pfizer Inc., priority 2010, dated 2013).

Assays:
CKIδ wild type = CKIδ wild type (Homo sapiens, UniProt P48730); assay: CK1δ kinase assay (Kinase-Glo); assay type: biochemical; conditions: 10 μM ATP, 2 nM CKIδ, 85 min at 25° C.; read-out: CK1 δ IC50
Protocol: (§1) The CK1δ kinase assay was performed in a 40 μl final volume in buffer containing 50 mM Tris, pH 7.5, 10 mM MgCl2, 1 mM dithiothreitol, 100 μg/mL BSA with 10 μM ATP, 2 nM CKIδ wild type, and 42 μM peptide substrate PLSRTLp[…] (Flotow et al., 1990) in the presence of 1 μl of CKIδ inhibitor or 4% DMSO. The reaction was incubated for 85 min at 25° C.; detection was carried out as described for the Kinase-Glo Assay (Promega). Luminescent output was measured on the Perkin Elmer Envision plate reader (PerkinElmer, Waltham, Mass.).

CKI ε wild type = CKI ε wild type (Homo sapiens, UniProt P49674); assay: CK1ε kinase assay (Kinase-Glo); assay type: biochemical; conditions: 10 μM ATP, 2.5 nM CKI ε, 70 min at 25° C.; read-out: CK1 ε:IC50
Chain of CKI ε wild type (P49674 whole entry): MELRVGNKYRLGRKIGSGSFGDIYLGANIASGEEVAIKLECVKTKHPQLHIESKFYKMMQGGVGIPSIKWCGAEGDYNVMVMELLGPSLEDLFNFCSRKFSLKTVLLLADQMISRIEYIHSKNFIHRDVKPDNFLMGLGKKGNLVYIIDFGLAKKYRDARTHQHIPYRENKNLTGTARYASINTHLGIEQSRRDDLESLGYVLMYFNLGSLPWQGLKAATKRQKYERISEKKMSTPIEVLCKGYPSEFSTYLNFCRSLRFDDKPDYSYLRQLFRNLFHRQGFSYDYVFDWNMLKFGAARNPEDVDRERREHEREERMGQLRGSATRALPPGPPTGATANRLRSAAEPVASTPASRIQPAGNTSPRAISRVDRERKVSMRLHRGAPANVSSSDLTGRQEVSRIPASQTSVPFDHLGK
Protocol: as §1, with “The CK1ε” for “The CK1δ”, “a 40-μl” for “a 40 μl”, “ATP, 2.5” for “ATP, 2”, “nM CKI ε” for “nM CKIδ”, “of CKI ε” for “of CKIδ”, “for 70” for “for 85”

[1] = target: T1, human CK1δ (Cos 7 cells cotransfected with mouse Per3-GFP) (Homo sapiens, UniProt P48730); assay: CK1 WCA HCS nuclear translocation assay (CK1δ); assay type: cell-based; conditions: inhibition of mPer3-GFP translocation to the nucleus, overnight exposure, read-out: CK1 δ WCA EC50
T1 construct: His tag of the vector pcDNA4/hisA (only the vector name is printed); expressed in transfected cells; host or cells: Cos 7 cells
T1 sequence (P48730 whole entry): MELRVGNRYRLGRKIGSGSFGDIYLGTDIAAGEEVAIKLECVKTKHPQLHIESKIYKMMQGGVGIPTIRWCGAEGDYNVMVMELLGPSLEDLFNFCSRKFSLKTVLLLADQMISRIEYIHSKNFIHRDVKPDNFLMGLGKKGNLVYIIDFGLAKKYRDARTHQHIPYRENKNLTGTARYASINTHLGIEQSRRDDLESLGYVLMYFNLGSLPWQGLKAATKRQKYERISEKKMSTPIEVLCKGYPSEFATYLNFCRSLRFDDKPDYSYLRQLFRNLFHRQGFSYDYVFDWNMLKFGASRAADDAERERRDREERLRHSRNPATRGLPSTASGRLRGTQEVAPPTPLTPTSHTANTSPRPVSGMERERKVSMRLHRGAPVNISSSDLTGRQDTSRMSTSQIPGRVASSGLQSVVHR
Protocol: CK1 WCA HCS Nuclear Translocation Assay.
Cos 7 cells were maintained at 37° C. in 5% CO2 in Dulbecco's Modified Eagle Medium (Gibco 11995) supplemented with 10% fetal bovine serum. Log-phase cells were dislodged with 5 min treatment of TrypLE Express (Gibco 12605) and viable cell count was determined with Cedex cell counter. Cells were diluted in DMEM medium to a density of 1.5e5 viable cells/mL in ⅔ of the final volume of final transfected cell mix. Cells were cotransfected with two plasmid DNAs, mouse Per3-GFP (green fluorescent protein) in pd2EGFP-N1 vector and human CKI in pcDNA4/hisA vector (for CK1Epsilon at a ratio of 1:5 respectively; for CK1δ at a ratio of 1:11 respectively), using Lipofectamine 2000 reagent (Invitrogen) according to the manufacturer's recommendations. The transfection mix contained approximately 0.83 μg/mL of DNA and 6 μL/mL of Lipofectamine 2000, in a total of ⅓ of the final transfection volume in Opti-MEM I medium (Invitrogen). After 20 min at rt, the cell mix was combined with the DNA transfection mix, per manufacturer instructions. 50 μL of the transfected cell suspension was dispensed per well by multidrop dispenser into Greiner 384-well Cellcoat (PDL) plates (Greiner #781946).
Compounds were solubilized in 100% DMSO, diluted with Opti-MEM I to a 4× concentration before addition to plated cells. After overnight exposure at 37° C. in a CO2 incubator, cells were fixed by the addition of 12% paraformaldehyde (Electron Microscopy Sciences, Hatfield, Pa.) in phosphate-buffered saline (PBS) with 20% sucrose to a final concentration of 4%, and then the cells were incubated for 30 min at rt. Fixative was removed, and cells were washed with PBS and then stained with 0.4 μg/ml Hoechst dye (Invitrogen) in blocking buffer containing 4% goat serum (Vector Labs s-1000) and 0.1% TritonX (Sigma T8787) for 1 h. Cells were washed again with PBS and stored at 4° C. in PBS or scanned immediately with the Cellomics ArrayScan VTI. CKIδ dependent nuclear localization of the GFP-tagged mPer3 protein was quantitated using the Cellomics ArrayScan VTI system utilizing the Cytoplasm to Nucleus translocation bioapplication to calculate the Nuclear-Cytoplasmic Intensity difference. Inhibitors of CK1 δ/ε were tested across a dose response curve to evaluate their ability to inhibit mPer3-GFP translocation to the nucleus. Cells with a total intensity of mPER3:GFP expression equal to or greater than 20,000 are included in analysis.

Chain of CKIδ wild type (P48730 whole entry): as above

Row | SMILES | IC50 (CKIδ wild type) | IC50 (CKI ε wild type) | EC50 [1]
1 | Cn1cc(-c2ccnc3c2C(=O)N(C24CC(C2)C4)C3)c(-c2ccc(F)cc2)n1 [Example 48, 6-bicyclo[1.1.1]pent-1-yl-4-[3-(4-fluorophenyl)-1-methyl-1H-pyrazol-4-yl]-6,7-dihydro-5H-pyrrolo[3,4-b]pyridin-5-one] | 18.4 nM | 80.7 nM | 130 nM
2 | COC[C@H]1CCC[C@H]1N1Cc2nccc(-c3cn(C)nc3-c3ccc(F)cc3)c2C1=O [Example 44, 4-[3-(4-fluorophenyl)-1-methyl-1H-pyrazol-4-yl]-6-[(1R,2S)-2-(methoxymethyl)cyclopentyl]-6,7-dihydro-5H-pyrrolo[3,4-b]pyridin-5-one] | 70.8 nM | 342 nM | 437 nM
3 | Cn1cc(-c2ccnc3c2C(=O)N(CCC#N)C3)c(-c2ccc(F)cc2)n1 [Example 40, 3-{4-[3-(4-fluorophenyl)-1-methyl-1H-pyrazol-4-yl]-5-oxo-5,7-dihydro-6H-pyrrolo[3,4-b]pyridin-6-yl}propanenitrile] | 11.1 nM | 47.1 nM | 53.7 nM
4 | CN(C)C(=O)CN1Cc2nccc(-c3cn(C)nc3-c3ccc(F)cc3)c2C1=O [Example 43, 2-{4-[3-(4-fluorophenyl)-1-methyl-1H-pyrazol-4-yl]-5-oxo-5,7-dihydro-6H-pyrrolo[3,4-b]pyridin-6-yl}-N,N-dimethylacetamide] | 93.2 nM | 512 nM | 564 nM
5 | CC(C)CN1Cc2nccc(-c3cn(C)nc3-c3ccc(F)cc3)c2C1=O [Example 39, 4-[3-(4-fluorophenyl)-1-methyl-1H-pyrazol-4-yl]-6-isobutyl-6,7-dihydro-5H-pyrrolo[3,4-b]pyridin-5-one] | 49.5 nM | 241 nM | 188 nM
6 | COCCN1Cc2nccc(-c3cn(C)nc3-c3ccc(F)cc3)c2C1=O [Example 42, 4-[3-(4-fluorophenyl)-1-methyl-1H-pyrazol-4-yl]-6-(2-methoxyethyl)-6,7-dihydro-5H-pyrrolo[3,4-b]pyridin-5-one] | 67.3 nM | 386 nM | 623 nM
7 | Cc1c(CN2Cc3nccc(-c4cn(C)nc4-c4ccc(F)cc4)c3C2=O)cnn1C [Example 35, 6-[(1,5-dimethyl-1H-pyrazol-4-yl)methyl]-4-[3-(4-fluorophenyl)-1-methyl-1H-pyrazol-4-yl]-6,7-dihydro-5H-pyrrolo[3,4-b]pyridin-5-one] | 23.3 nM | 130 nM | 104 nM
8 | Cn1cc(-c2ccnc3c2C(=O)N(CCOC(C)(C)C)C3)c(-c2ccc(F)cc2)n1 [Example 30, 6-(2-tert-butoxyethyl)-4-[3-(4-fluorophenyl)-1-methyl-1H-pyrazol-4-yl]-6,7-dihydro-5H-pyrrolo[3,4-b]pyridin-5-one] | 27.7 nM | 149 nM | 159 nM
9 | COCCCN1Cc2nccc(-c3cn(C)nc3-c3ccc(F)cc3)c2C1=O [Example 29, 4-[3-(4-fluorophenyl)-1-methyl-1H-pyrazol-4-yl]-6-(3-methoxypropyl)-6,7-dihydro-5H-pyrrolo[3,4-b]pyridin-5-one] | 26.2 nM | 131 nM | 217 nM
10 | Cc1ccc(CN2Cc3nccc(-c4cn(C)nc4-c4ccc(F)cc4)c3C2=O)cn1 [Example 52, 4-[3-(4-fluorophenyl)-1-methyl-1H-pyrazol-4-yl]-6-[(6-methylpyridin-3-yl)methyl]-6,7-dihydro-5H-pyrrolo[3,4-b]pyridin-5-one] | 19 nM | 127 nM | 60.7 nM
11 | CC(C)OC(=O)CN1Cc2nccc(-c3cn(C)nc3-c3ccc(F)cc3)c2C1=O [Example 49, isopropyl {4-[3-(4-fluorophenyl)-1-methyl-1H-pyrazol-4-yl]-5-oxo-5,7-dihydro-6H-pyrrolo[3,4-b]pyridin-6-yl}acetate] | 108 nM | 496 nM | 506 nM
12 | CCOCCCN1Cc2nccc(-c3cn(C)nc3-c3ccc(F)cc3)c2C1=O [Example 51, 6-(3-ethoxypropyl)-4-[3-(4-fluorophenyl)-1-methyl-1H-pyrazol-4-yl]-6,7-dihydro-5H-pyrrolo[3,4-b]pyridin-5-one] | 14.6 nM | 63.8 nM | 129 nM
13 | Cn1cc(CN2Cc3nccc(-c4cn(C)nc4-c4ccc(F)cc4)c3C2=O)cn1 [Example 26, 4-[3-(4-fluorophenyl)-1-methyl-1H-pyrazol-4-yl]-6-[(1-methyl-1H-pyrazol-4-yl)methyl]-6,7-dihydro-5H-pyrrolo[3,4-b]pyridin-5-one] | 22.6 nM | 123 nM | 125 nM
14 | Cn1cc(-c2ccnc3c2CCC3)c(-c2ccc(F)cc2)n1 [Example 23, 4-[3-(4-fluorophenyl)-1-methyl-1H-pyrazol-4-yl]-6,7-dihydro-5H-cyclopenta[b]pyridine] | 25.4 nM | 157 nM | 214 nM
15 | Cn1cc(-c2ccnc3c2C(=O)N(Cc2cccnc2)C3)c(-c2ccc(F)cc2)n1 [Example 50, 4-[3-(4-fluorophenyl)-1-methyl-1H-pyrazol-4-yl]-6-(pyridin-3-ylmethyl)-6,7-dihydro-5H-pyrrolo[3,4-b]pyridin-5-one] | 21.3 nM | 145 nM | 83.6 nM
16 | Cn1cc(-c2ccnc3c2C(=O)N(C2CCOCC2)C3)c(-c2ccc(F)cc2)n1 [Example 36, 4-[3-(4-fluorophenyl)-1-methyl-1H-pyrazol-4-yl]-6-(tetrahydro-2H-pyran-4-yl)-6,7-dihydro-5H-pyrrolo[3,4-b]pyridin-5-one] | > 195 nM | > 516 nM | 224 nM
17 | CCC[C@@H](C)N1Cc2nccc(-c3cn(C)nc3-c3ccc(F)cc3)c2C1=O [Example 47, 4-[3-(4-fluorophenyl)-1-methyl-1H-pyrazol-4-yl]-6-[(1R)-1-methylbutyl]-6,7-dihydro-5H-pyrrolo[3,4-b]pyridin-5-one] | > 160 nM | > 423 nM | 89.7 nM
18 | COC(=O)C1(N2Cc3nccc(-c4cn(C)nc4-c4ccc(F)cc4)c3C2=O)CC1 [Example 31, methyl 1-{4-[3-(4-fluorophenyl)-1-methyl-1H-pyrazol-4-yl]-5-oxo-5,7-dihydro-6H-pyrrolo[3,4-b]pyridin-6-yl}cyclopropanecarboxylate] | 48.1 nM | 187 nM | 304 nM
19 | Cn1cc(CCN2Cc3nccc(-c4cn(C)nc4-c4ccc(F)cc4)c3C2=O)cn1 [Example 33, 4-[3-(4-fluorophenyl)-1-methyl-1H-pyrazol-4-yl]-6-[2-(1-methyl-1H-pyrazol-4-yl)ethyl]-6,7-dihydro-5H-pyrrolo[3,4-b]pyridin-5-one] | > 75.5 nM | > 230 nM | 232 nM
20 | Cc1cc(CN2Cc3nccc(-c4cn(C)nc4-c4ccc(F)cc4)c3C2=O)nn1C [Example 28, 6-[(1,5-dimethyl-1H-pyrazol-3-yl)methyl]-4-[3-(4-fluorophenyl)-1-methyl-1H-pyrazol-4-yl]-6,7-dihydro-5H-pyrrolo[3,4-b]pyridin-5-one] | 15.7 nM | 86.4 nM | 66.4 nM
